Laboratory results published in patent US20090269352A1, “ANTITUMOR AGENT COMPRISING SULFONAMIDE-CONTAINING HETEROCYCLIC COMPOUND COMBINED WITH AN ANGIOGENESIS INHIBITOR” (priority 2002, published 2009).

How the values were obtained:
KP-1 or Colo320DM cells = assay: Mouse model with grown cancer (FIG. 1, tumor not given); format: in vivo, mice (KSN Slc, female); details: oral, 2 weeks
Method: (§1) 1×10^7 KP-1 or Colo320DM cells/0.1 ml PBS/mouse were inoculated subcutaneously to mice (KSN Slc, female). From 1 to 2 weeks after the transplantation, 0.5% aqueous methyl cellulose solution, E7820 (0.5% methyl cellulose suspension: 50, 100, 200 mg/kg: twice a day), or ZD6474 (0.5% methyl cellulose suspension: 50, 100 mg/kg: once a day), or both of E7820 (50, 100, 200 mg/kg: twice a day) and ZD6474 (50, 100 mg/kg: once a day), were orally administered for 2 weeks. The transplanted tumor volume was measured twice every week, and the relative tumor volume was calculated according to the following equation: Relative tumor volume=tumor volume on the day after last administration/tumor volume at first administration.
(§2) The antitumor effect was expressed in T/C % (T/C %=relative tumor volume in the chemical administration group/relative tumor volume in the control group).

Colo320DM cells = assay: Mouse model with grown cancer, Colo320DM; format: in vivo, mice (KSN Slc, female); details: Colo320DM tumor; oral, 2 weeks; relative tumor volume treated/control
Method: as §1, §2

KP-1 cells = assay: Mouse model with grown cancer, KP-1; format: in vivo, mice (KSN Slc, female); details: KP-1 tumor; oral, 2 weeks; relative tumor volume treated/control
Method: as §1, §2

[1] = tested on: Human umbilical vein endothelial cells (HUVEC); assay: Tube formation of endothelial cell, FGF inhibitor wells, combination with E7820; format: cell-based; details: inhibition rate (fa) 0.5, 10 ng/ml EGF and 20 ng/ml bFGF
Method: (§5) 400 μl of type I collagen gel (Nitta Gelatin) were added onto each well of a 24-well plate (FALCON) and gelled at 37° C. in a CO2 incubator for 40 min. A serum-free medium (human endothelial-SFM basal growth medium; GIBCO BRL) containing 20 ng/ml EGF (GIBCO BRL) was prepared, and 200 μl of this medium solution were added onto each well containing the type I collagen gel. Human umbilical vein endothelial cells (HUVEC) were suspended in a serum-free medium (human endothelial-SFM basal growth medium; GIBCO BRL) to prepare a cell suspension at a density of 5×10^5 cells/ml. 200 μl of this suspension were put into each well containing the type I collagen gel and serum-free medium, and cultured overnight.
(§6) After incubation, […] of 3.3 mg/ml MTT (SIGMA) were added into each well and reacted at 37° C. in a CO2 incubator for 3 hours to stain the cells. Under a microscope (SZX12 manufactured by OLYMPUS), an image of a tube formed by HUVEC was incorporated (M-3204C manufactured by OLYMPUS). The tube length in the incorporated image was measured by image analysis software Mac SCOPE 2.56 (manufactured by MITANI) to quantify the tube formation of HUVEC.

[2] = tested on: Human umbilical vein endothelial cells; assay: Proliferation of FGF-induced endothelial cells, combination with E7820; format: cell-based; details: inhibition rate (fa) 0.5, 20 ng/ml bFGF; for Combination index (CI): formula of Chou et al.
Method: (§3) On the next day, ½ serial dilutions of FGF receptor kinase inhibitors (PD166866, PD173074) or FGF antibody as FGF inhibitors, ½ serial dilutions of E7820, and dilutions containing two of the above substances were prepared respectively, and each dilution was added in a volume of 100 μl/well to each well containing the cultured human umbilical vein endothelial cells, and the cells were further cultured.
(§4) After 3 days, 5 ml cell counting kit solution (Wako Pure Chemical Industries, Ltd.) were diluted with PBS to give 40 ml dilution, and 50 μl of this dilution were added to each well, then incubated at 37° C. for 3 to 4 hours and measured for its absorbance at 415 nm by a plate reader (Corona Denki Co., Ltd.).

[3] = tested on: Human umbilical vein endothelial cells; assay: Proliferation of VEGF-induced endothelial cells, combination with E7820; format: cell-based; details: inhibition rate (fa) 0.5, 20 ng/ml VEGF; for Combination index (CI): formula of Chou et al.
Method: as §3, with “VEGF” for “FGF”, “(ZD6474, ZD4190, SU5416, SU6668)” for “(PD166866, PD173074)”, “inhibitors, ½ serial dilutions of VEGF antibody,” for “inhibitors,”
as §4

[4] = tested on: Human umbilical vein endothelial cells (HUVEC); assay: Tube formation of endothelial cell, VEGF inhibitor wells, combination with E7820
Method: as §5, §6

Cc1ccc(NS(=O)(=O)c2cccc(C#N)c2)c2[nH]cc(C#N)c12 [E7820]
Tumor growth / antitumor effect (FIG. 1) (KP-1 or Colo320DM cells): tumor growth was inhibited | T/C % (Colo320DM cells): 60% | T/C % (KP-1 cells): 83%

COc1cc(OC)cc(-c2cc3cnc(N)nc3nc2NC(=O)NC(C)(C)C)c1 [PD166866]
Combination effect [1]: Synergistic | Combination effect [2]: Synergistic | Combination index (CI) [2]: 0.5

CCN(CC)CCCCNc1ncc2cc(-c3cc(OC)cc(OC)c3)c(NC(=O)NC(C)(C)C)nc2n1 [PD173074]
Combination effect [2]: Synergistic | Combination index (CI) [2]: 0.4

Cc1cc(C)c(/C=C2\C(=O)Nc3ccccc32)[nH]1 [SU5416]
Combination effect [3]: Synergistic | Combination index (CI) [3]: 0.4

Cc1[nH]c(/C=C2\C(=O)Nc3ccccc32)c(C)c1CCC(=O)O [SU6668]
Combination effect [3]: Synergistic | Combination index (CI) [3]: 0.5

COc1cc2c(Nc3ccc(Br)cc3F)ncnc2cc1OCCn1ccnn1 [ZD4190]
Combination effect [3]: Synergistic | Combination index (CI) [3]: 0.3

COc1cc2c(Nc3ccc(Br)cc3F)ncnc2cc1OCC1CCN(C)CC1 [ZD6474]
Tumor growth / antitumor effect (FIG. 1) (KP-1 or Colo320DM cells): tumor growth was inhibited | T/C % (Colo320DM cells): 56% | Combination effect ([4]; inhibition rate (fa) 0.5, 10 ng/ml EGF and 20 ng/ml VEGF): Synergistic | Combination index (CI) ([4]; inhibition rate (fa) 0.5, tube length, 10 ng/ml EGF and 20 ng/ml VEGF): 0.4 | T/C % (KP-1 cells): 47% | Combination effect [3]: Synergistic | Combination index (CI) [3]: 0.4
